Experimental data taken from patent publication US4902794A, “Triazolo-benzodiazepines” (The Upjohn Company, priority 1983, dated 1990).

Key:
mice [1] = assay: Chimney test; assay type: in vivo; settings: Mus musculus, ip, intraperitoneal, failure to back up and out of vertical glass cylinder within 30 seconds, read-out: ED50, Chimney test (Ch)
Description: (§1) Sedative effects of 8-chloro-1-(hydroxymethyl)-6-phenyl-4H-s-triazolo[4,3-a][1,4]benzodiazepine (A) are shown by the following tests in mice:
The test determines the ability of mice to back up and out of a vertical glass cylinder within 30 seconds. At the effective dosage, 50% of the mice failed doing it.

mice [2] = assay: Dish test; assay type: in vivo; settings: Mus musculus, ip, intraperitoneal, remaining in the dish for more than 3 minutes, read-out: ED50, Dish test (D)
Protocol: as §1
Dish test: Mice in Petri dishes (10 cm. diameter, 5 cm. higher, partially embedded in wood shavings), climb out in a very short itme, when not treated. Mice remaining in the dish for more than 3 minutes indicates tranquilization. The ED50 equals the dose of test compound at which 50% of the mice remain in the dish. The ED50 (intraperitoneal administration) in this test was 2.0 mg./kg.

mice [3] = assay: Pedestal test; assay type: in vivo; settings: Mus musculus, ip, intraperitoneal, stay on the pedestal for more than 1 minute, read-out: ED50, Pedestal test (P)
Protocol: as §1
Pedestal test: The untreated mouse leaves the pedestal in less than a minute to climb back to the floor of the standard mouse box. Tranquilized mice will stay on the pedestal for more than 1 minute.

mice [4] = assay: Nicotine antagonism test; assay type: in vivo; settings: Mus musculus, ip, intraperitoneal, nicotine salicylate 2 mg./kg. thirty minutes later
Protocol: as §1
Nicotine antagonism test: Mice in a group of 6 are injected with the test compound-8-chloro-1-(hydroxymethyl)-6phenyl-4H-s-triazolo[4,3-a][1,4]benzodiazepine. Thirty minutes later the mice including control (untreated) mice are injected with nicotine salicylate (2 mg./kg.). The control mice show overstimulation, i.e., (1) running convulsions followed by (2) tonic extensor fits; followed by (3) death. […] (ED50) was necessary.

[5] = LD50 (lethal dose) in mice; settings: mouse, in vivo
[6] = read-out: ED50, Nicotine antagonism (3) test (Ni): protection of 50% of the mice against death

## OCc1nnc2n1-c1ccc(Cl)cc1C(c1ccccc1Cl)=NC2 [C, 8-Chloro-1-(hydroxymethyl)-6-(o-chlorophenyl)-4H-s-triazolo[4,3-a][1,4]benzodiazepine]
Mice [1]
  ED50: 0.04 mg/kg
Mice [2]
  ED50: 0.03 mg/kg
Mice [3]
  ED50: 0.03 mg/kg
Mice [4]; [6]
  ED50: 0.032 mg/kg
[5]
  LD50: > 100 mg/kg

## CCOCc1nnc2n1-c1ccc(Cl)cc1C(c1ccccc1)=NC2 [B, 8-Chloro-1-(ethoxymethyl)-6-phenyl-4H-s-triazolo[4,3-a][1,4]benzodiazepine]
Mice [1]
  ED50: 1 mg/kg
Mice [2]
  ED50: 1.6 mg/kg
Mice [3]
  ED50: 1.4 mg/kg
Mice [4]; [6]
  ED50: 0.6 mg/kg
[5]
  LD50: > 100 mg/kg

## OCc1nnc2n1-c1ccc(Cl)cc1C(c1ccccc1)=NC2 [A, 8-chloro-1-(hydroxymethyl)-6-phenyl-4H-s-triazolo[4,3-a][1,4]benzodiazepine]
Mice [1]
  ED50: 0.63 mg/kg
Mice [2]
  ED50: 2 mg/kg
Mice [3]
  ED50: 1.56 mg/kg
Mice [4]; read-out: ED50, Nicotine antagonism (2) test: dosage protecting 50% of the mice against tonic extensor fits
  ED50: 0.08 mg/kg
Mice [4]; [6]
  ED50: 0.1 mg/kg
[5]
  LD50: > 100 mg/kg

## O=C(O)CCC(=O)OCc1nnc2n1-c1ccc(Cl)cc1C(c1ccccc1Cl)=NC2 [D, Hydrogensuccinate ester of 8-chloro-1-(hydroxymethyl)-6-(o-chlorophenyl)-4H-s-triazolo[4,3-a][1,4]benzodiazepine]
Mice [1]
  ED50: 0.125 mg/kg
Mice [2]
  ED50: 0.125 mg/kg
Mice [3]
  ED50: 0.2 mg/kg
Mice [4]; [6]
  ED50: 0.09 mg/kg
[5]
  LD50: > 25 mg/kg
